Consider seven compounds from patent US12371404B2, “Fused bicyclic alkylene linked imidodicarbonimidic diamides, methods for synthesis, and uses in therapy” (NovaTarg, Inc., priority 2016, dated 2025).

The target in one test is T1, human MATE1 (Homo sapiens, UniProt Q96FL8).
T1 sequence (Q96FL8 1-570): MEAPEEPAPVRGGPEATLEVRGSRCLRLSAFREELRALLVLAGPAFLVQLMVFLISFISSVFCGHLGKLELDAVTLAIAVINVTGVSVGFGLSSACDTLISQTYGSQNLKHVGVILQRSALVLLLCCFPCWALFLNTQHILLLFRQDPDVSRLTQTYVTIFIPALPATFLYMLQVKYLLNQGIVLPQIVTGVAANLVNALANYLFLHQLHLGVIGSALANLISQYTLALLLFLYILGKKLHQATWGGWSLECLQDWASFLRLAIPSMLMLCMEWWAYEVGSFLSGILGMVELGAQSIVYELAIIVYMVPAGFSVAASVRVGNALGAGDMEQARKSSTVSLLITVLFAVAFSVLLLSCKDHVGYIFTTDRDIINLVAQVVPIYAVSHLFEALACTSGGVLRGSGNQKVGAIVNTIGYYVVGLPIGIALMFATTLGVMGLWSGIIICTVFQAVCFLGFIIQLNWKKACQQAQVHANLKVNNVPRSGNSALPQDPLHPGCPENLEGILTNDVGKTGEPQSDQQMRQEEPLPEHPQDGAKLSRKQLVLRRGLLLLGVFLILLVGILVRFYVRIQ
Kind of test: Oxygen consumption rate (OCR) assay, HEK293 cells transfected with MATE1.

For another test, the target named is T2, human PMAT (Homo sapiens, UniProt Q7RTT9).
T2 construct: expressed in transfected cells; host or cells: HEK293
T2 sequence (Q7RTT9 1-530): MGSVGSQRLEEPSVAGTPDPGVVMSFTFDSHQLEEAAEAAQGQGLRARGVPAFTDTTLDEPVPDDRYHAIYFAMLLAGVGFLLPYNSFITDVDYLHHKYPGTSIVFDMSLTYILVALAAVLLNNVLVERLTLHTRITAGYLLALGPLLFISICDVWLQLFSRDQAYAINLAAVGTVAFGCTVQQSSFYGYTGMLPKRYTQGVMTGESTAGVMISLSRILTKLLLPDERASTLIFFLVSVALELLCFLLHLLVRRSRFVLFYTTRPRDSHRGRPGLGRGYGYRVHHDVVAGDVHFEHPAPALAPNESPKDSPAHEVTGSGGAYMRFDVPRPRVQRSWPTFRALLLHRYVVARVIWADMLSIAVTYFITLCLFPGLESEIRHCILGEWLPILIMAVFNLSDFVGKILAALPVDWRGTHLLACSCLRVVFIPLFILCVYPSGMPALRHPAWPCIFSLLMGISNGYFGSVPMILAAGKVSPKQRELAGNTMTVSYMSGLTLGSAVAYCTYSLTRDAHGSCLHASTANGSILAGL
Nature of the test: Oxygen consumption rate (OCR) assay, HEK293 cells transfected with PMAT. It counts as cell-based. An excerpt: (§1) Diabetologia 2011, 54 (12): 3101-3110, each incorporated by reference with regard to such testing. The compounds of the present invention are similarly tested in an oxygen consumption rate (OCR) assay to evaluate the functional activity of test compounds in cells.
(§2) In brief, the assay uses HEK293 cells stably transfected with the human OCT1, OCT2, OCT3, PMAT, or MATE1 transporters to determine a compound's relative transporter selectivity and its effect on the rate of oxygen consumption relative to control (Neo) cells. The MitoXpress Xtra oxygen-sensitive fluorophore is used to monitor oxygen consumption rates in the presence and absence of compound treatments. The analogs were tested at eight (8) different concentrations in triplicate to determine a relative IC50 value.
(§3) A summary description of the protocol is as follows:
(§4) HEK293 cells transformed with human organic cation transporters were plated in collagen coated, 96-well black-walled microclear plates (Greiner-Bio 1, #655956) at 60,000 cells per well in growth medium (DMEM (LG), 10% FBS, 400 μg/ml G418). Cells were incubated overnight to allow attachment. The outer columns (1 and 12) are not seeded with cells, as controls. The next day, plating medium was removed and replaced with 150 μL of assay medium (DMEM/F12 (PRF), 5% FBS, antibiotics) containing compound dilutions. A 3-fold serial dilution was prepared in the assay medium and transferred to the empty wells. The outer columns and column 11 received 150 μL of assay medium only. 10 μL of MitoXpress Xtra reagent was added to each test well, and 100 μL of pre-warmed mineral oil was overlayed in each well to create a seal. Dual read time-resolved fluorescence (BMG FluoStar Galaxy reader) was measured over 2 hours with measurements taken every 2 minutes. Excitation is 340 nm, Emission is 650 nm. For lifetime analysis, two measurements per well were taken: 1) delay of 30 μs, with a window of 30 μs; and 2) delay of 70 μs with a window of 30 μs. Background TRF values from A1-D1 were subtracted from all readings. A ratiometric analysis was performed to determine changes in the Lifetime fluorescence signal:Lifetime (μs) [T]=(D2−D1)/ln(W1/W2), where D is delay; W is fluorescence window value at each time point. Lifetime slopes were calculated using each Lifetime measurement over time. IC50 values were determined by plotting lifetime slope values vs. compound concentration.

For another test, the target named is T3, human OCT2 (Homo sapiens, UniProt O15244).
T3 sequence (O15244 1-555): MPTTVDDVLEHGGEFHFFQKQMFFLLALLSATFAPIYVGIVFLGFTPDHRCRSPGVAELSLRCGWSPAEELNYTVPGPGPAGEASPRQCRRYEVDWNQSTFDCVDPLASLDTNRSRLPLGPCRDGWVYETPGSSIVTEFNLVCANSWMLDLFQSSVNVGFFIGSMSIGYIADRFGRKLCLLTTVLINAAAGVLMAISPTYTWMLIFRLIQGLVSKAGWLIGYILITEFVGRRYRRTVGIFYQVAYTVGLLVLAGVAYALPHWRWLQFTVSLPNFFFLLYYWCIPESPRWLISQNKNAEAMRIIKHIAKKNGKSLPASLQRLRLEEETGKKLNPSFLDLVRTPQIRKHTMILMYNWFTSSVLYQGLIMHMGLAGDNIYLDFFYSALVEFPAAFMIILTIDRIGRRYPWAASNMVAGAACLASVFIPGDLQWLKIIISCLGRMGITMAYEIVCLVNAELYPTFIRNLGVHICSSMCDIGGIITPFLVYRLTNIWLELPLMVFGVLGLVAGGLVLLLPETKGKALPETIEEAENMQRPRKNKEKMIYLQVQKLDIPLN
Kind of test: Oxygen consumption rate (OCR) assay, HEK293 cells transfected with OCT2. Particulars: HEK293 cells stably transfected with human OCT2; MitoXpress Xtra, 2 hours.
Excerpt: as §1, §2, §3
as §4, with “10 μL of MitoXpress Xtra reagent was added to each test well, and 100 μL of pre-warmed mineral oil was overlayed in each well to create a seal.” left out, “Excitation is 340 nm, Emission is 650 nm. For lifetime analysis, two measurements per well were taken: 1) delay of 30 μs, with a window of 30 μs; and 2) delay of 70 μs with a window of 30 μs.” left out

Another test has as its system control (Neo) cells. Nature of the test: Oxygen consumption rate (OCR) assay, control (Neo) HEK293 cells. It is filed as cell-based. The conditions noted are these: Homo sapiens, read-out: Oxygen Consumption Rate (OCR) IC50, Neo.
For test [1] the following is noted: diabetic cancer patients taking metformin during neoadjuvant chemotherapy; versus 8% not receiving metformin, P=0.007; cited from earlier work.
The conditions of test [2]: NASH, dose up to 1 g twice daily (BID); cited from earlier work.
The conditions of test [3]: diabetic patients receiving metformin; cited from earlier work.
For test [4] the following is noted: T2D patients treated with metformin, retrospective studies; cited from earlier work.
The target of another test is T4, human OCT1 (Homo sapiens, UniProt O15245).
T4 sequence (O15245 1-554): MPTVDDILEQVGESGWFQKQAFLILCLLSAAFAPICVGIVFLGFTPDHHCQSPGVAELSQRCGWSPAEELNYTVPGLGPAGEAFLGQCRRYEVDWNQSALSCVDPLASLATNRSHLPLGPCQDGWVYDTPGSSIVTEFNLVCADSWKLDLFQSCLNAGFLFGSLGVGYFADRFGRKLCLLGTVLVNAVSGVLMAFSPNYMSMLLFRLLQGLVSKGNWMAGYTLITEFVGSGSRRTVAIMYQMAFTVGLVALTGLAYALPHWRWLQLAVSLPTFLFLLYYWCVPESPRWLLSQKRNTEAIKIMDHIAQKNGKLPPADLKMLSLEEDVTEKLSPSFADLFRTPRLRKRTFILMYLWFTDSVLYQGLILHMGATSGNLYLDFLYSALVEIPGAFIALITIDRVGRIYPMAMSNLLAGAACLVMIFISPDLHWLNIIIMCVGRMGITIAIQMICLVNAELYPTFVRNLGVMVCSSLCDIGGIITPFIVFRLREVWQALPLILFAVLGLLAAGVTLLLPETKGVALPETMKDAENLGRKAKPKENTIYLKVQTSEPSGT
Nature of the test: Oxygen consumption rate (OCR) assay, HEK293 cells transfected with OCT1. Particulars: HEK293 cells stably transfected with human OCT1; MitoXpress Xtra, 2 hours.
Excerpt: as §1, §2, §3
as §4, with “10 μL of MitoXpress Xtra reagent was added to each test well, and 100 μL of pre-warmed mineral oil was overlayed in each well to create a seal.” left out, “Excitation is 340 nm, Emission is 650 nm. For lifetime analysis, two measurements per well were taken: 1) delay of 30 μs, with a window of 30 μs; and 2) delay of 70 μs with a window of 30 μs.” left out

SMILES strings stand for the structures. Where a name gives a salt, the structure may show the parent alone. Read-outs that look alike come from different tables or passages of the source.

By IC50 is commonly meant the concentration that inhibits the measured activity by half. On to `N=C(N)NC(=N)NCCc1c[nH]c2c(F)cccc12` [Ex 3, 1-[2-(7-fluoro-1H-indol-3-yl)ethyl]imidodicarbonimide diamide], for which the IC50 against human MATE1 turned out to be 20 µM; against human PMAT, 4 µM; in the test with control (Neo) cells (HEK293, 2 h), 677 µM. Moreover, the “Oxygen Consumption Rate (OCR) IC50, OCT 2” value on human OCT2 amounted to 7 µM.

As to `CN(C)C(=N)NC(=N)N` [Metformin], the “pathological complete response rate” value in test [1] is recorded as 24%. Further, the IC50 at human PMAT (HEK293 cells stably transfected with human PMAT, MitoXpress Xtra, 2 hours, read-out: Oxygen Consumption Rate (OCR) IC50, PMAT) was 288 µM; in the test on control (Neo) cells (control (Neo) HEK293 cells, MitoXpress Xtra, 2 hours), above 3000 µM. Moreover, in [2], the “patients with improvement in liver pathology and ALT” value is on record as 30%. Further, the “decrease in breast cancer compared with those on other therapies” value in test [3] is on record as 56%. Besides, the “reduced cancer burden than patients on other treatments” value in test [4] is around 40%.

With `Cl.N=C(N)NC(=N)NCCc1c[nH]c2ccc(F)cc12` [Ex 2, 1-[2-(5-fluoro-1H-indol-3-yl)ethyl]imidodicarbonimide diamide hydrochloride], the “Oxygen Consumption Rate (OCR) IC50, OCT 1” value at human OCT1 is above 1000 µM. Also, the IC50 on human MATE1 was above 1000 µM; on human PMAT, 5 µM; in the test with control (Neo) cells (HEK293, 2 h), above 1000 µM.

Regarding `N=C(N)NC(=N)NCCc1c[nH]c2cccc(Cl)c12` [Ex 34, 1-[2-(4-chloro-1H-indol-3-yl)ethyl]imidodicarbonimide diamide, trifluoroacetic acid salt], the “Oxygen Consumption Rate (OCR) IC50, OCT 1” value on human OCT1 amounted to 3 µM. For the same compound, the IC50 at human MATE1 is 19 µM; at human PMAT it was 2 µM; with control (Neo) cells (HEK293, 2 h) it was 184 µM.

For the compound `Cc1[nH]c2ccccc2c1CCNC(=N)NC(=N)N` [Ex 1, 1-[2-(2-methyl-1H-indol-3-yl)ethyl]imidodicarbonimide diamide], on human OCT1, the “Oxygen Consumption Rate (OCR) IC50, OCT 1” value turned out to be 1267 µM. At human MATE1 (HEK293, read-out: Oxygen Consumption Rate (OCR), MATE 1, % Inhibition at 1000 μM test concentration), the inhibition at 1000 µM is 30%. Also, the IC50 is 3 µM against human PMAT and above 5000 µM with control (Neo) cells (HEK293, 2 h).

Consider `N=C(N)NC(=N)NCCc1c[nH]c2cccc(F)c12` [Ex 26, 1-[2-(4-fluoro-1H-indol-3-yl)ethyl]imidodicarbonimide diamide, trifluoroacetic acid salt], for which the IC50 at human PMAT worked out at 2 µM; in the test on control (Neo) cells (HEK293, 2 h), 90 µM. Also, the “Oxygen Consumption Rate (OCR) IC50, OCT 2” value on human OCT2 is 2 µM.

`N=C(N)NC(=N)NCCc1c[nH]c2cc(F)ccc12` [Ex 11, 1-[2-(6-fluoro-1H-indol-3-yl)ethyl]imidodicarbonimide Diamide Trifluoroacetic Acid Salt]: the IC50 at human MATE1 came out at 57 µM; at human PMAT, 3 µM; with control (Neo) cells (HEK293, 2 h), 214 µM. Besides, the “Oxygen Consumption Rate (OCR) IC50, OCT 2” value at human OCT2 amounted to 12 µM.
